Laboratory results taken from US8946215B2, “Hydroxy-substituted imidazo[1,2-a]pyridinecarboxamides and their use” (Bayer Pharma Aktiengesellschaft, priority 2012, dated 2015).

Key:
[1] = molecular target: T1, recombinant guanylate cyclase reporter cell line (Rattus norvegicus, UniProt P19686+P20595); experiment: Action on recombinant guanylate cyclase reporter cell line; assay type: cell-based; conditions: in some cases mean values obtained from individual determinations
T1 construct: expressed in transfected cells
T1 sequence (P20595 1-619): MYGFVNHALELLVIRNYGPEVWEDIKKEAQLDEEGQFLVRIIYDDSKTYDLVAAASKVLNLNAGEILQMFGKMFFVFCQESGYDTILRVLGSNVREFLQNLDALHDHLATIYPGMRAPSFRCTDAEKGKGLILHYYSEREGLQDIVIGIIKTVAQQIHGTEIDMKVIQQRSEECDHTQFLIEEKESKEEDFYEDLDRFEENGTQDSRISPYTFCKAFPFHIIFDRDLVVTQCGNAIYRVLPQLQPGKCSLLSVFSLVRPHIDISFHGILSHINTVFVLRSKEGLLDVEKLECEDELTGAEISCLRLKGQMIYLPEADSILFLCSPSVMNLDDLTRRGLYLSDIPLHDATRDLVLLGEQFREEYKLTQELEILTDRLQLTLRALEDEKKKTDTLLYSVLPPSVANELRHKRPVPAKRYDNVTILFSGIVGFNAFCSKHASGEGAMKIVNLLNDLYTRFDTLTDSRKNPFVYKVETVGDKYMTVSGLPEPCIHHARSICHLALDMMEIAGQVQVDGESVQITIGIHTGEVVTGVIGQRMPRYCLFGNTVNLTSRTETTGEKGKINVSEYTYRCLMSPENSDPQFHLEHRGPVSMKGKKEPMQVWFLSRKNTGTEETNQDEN
T1 sequence (P19686 1-690): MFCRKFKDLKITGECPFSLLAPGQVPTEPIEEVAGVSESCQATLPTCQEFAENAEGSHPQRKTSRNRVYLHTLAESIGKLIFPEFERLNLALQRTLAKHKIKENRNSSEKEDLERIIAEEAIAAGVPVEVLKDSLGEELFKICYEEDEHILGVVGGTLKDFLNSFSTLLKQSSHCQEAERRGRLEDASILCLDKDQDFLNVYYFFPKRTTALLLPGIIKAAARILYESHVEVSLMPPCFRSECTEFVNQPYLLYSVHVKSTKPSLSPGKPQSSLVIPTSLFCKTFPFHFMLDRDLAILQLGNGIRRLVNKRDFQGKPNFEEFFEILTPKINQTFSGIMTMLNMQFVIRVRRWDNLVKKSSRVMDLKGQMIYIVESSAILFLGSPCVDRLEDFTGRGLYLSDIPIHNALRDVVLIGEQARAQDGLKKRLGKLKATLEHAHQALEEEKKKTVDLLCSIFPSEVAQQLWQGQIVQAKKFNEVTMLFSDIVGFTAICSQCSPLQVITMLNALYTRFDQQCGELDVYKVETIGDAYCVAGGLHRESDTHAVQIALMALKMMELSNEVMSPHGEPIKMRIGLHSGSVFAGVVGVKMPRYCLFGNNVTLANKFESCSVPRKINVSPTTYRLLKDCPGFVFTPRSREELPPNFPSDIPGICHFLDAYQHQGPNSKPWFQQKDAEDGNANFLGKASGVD
Method in brief: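 Cell-based reporter assay with recombinant guanylate cyclase expressed in a reporter cell line, per a published method. Activity reported as minimal effective concentration (MEC), in some cases as the mean of individual determinations.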

[2] = Determination of pharmacokinetic parameters following intravenous and oral administration (rats); assay type: in vivo, male Wistar rats; conditions: following intravenous and peroral administration; for MRT / half-life: male, Wistar, rat, plasma; for MRT: read-out: MRT (Mean Residence Time); for half-life: read-out: t½ (terminal half life) (converted)
Procedure: B-6. Determination of Pharmacokinetic Parameters Following Intravenous and Oral Administration
The pharmacokinetic parameters of the compounds according to the invention are determined in male CD-1 mice, male Wistar rats and female beagles. Intravenous administration in the case of mice and rats is carried out by means of a species-specific plasma/DMSO formulation, and in the case of dogs by means of a water/PEG400/ethanol formulation. In all species, oral administration of the dissolved substance is performed via gavage, based on a water/PEG400/ethanol formulation.
The taking of blood from rats is simplified by inserting a silicone catheter into the right Vena jugularis externa prior to substance administration. The operation is carried out at least one day prior to the experiment with […] and administration of an analgesic (atropin/Rimadyl (3/1) 0.1 ml s.c.). The blood is taken (generally more than 10 time points) within a time window including terminal time points of at least 24 to a maximum of 72 hours after substance administration. When the blood is taken, it is passed into heparinised tubes. Then the blood plasma is obtained by centrifugation and is optionally stored at −20° C. until further processing.
An internal standard (which may also be a chemically unrelated substance) is added to the samples of the compounds according to the invention, calibration samples and qualifiers, and there follows protein precipitation by means of excess acetonitrile. Addition of a buffer solution matched to the LC conditions, and subsequent vortexing, is followed by centrifugation at 1000 g. The supernatant is analysed by LC-MS/MS using C18 reversed-phase columns and variable mobile phase mixtures.
The substances are quantified via the peak heights or areas from extracted ion chromatograms of specific selected ion monitoring experiments.
The plasma concentration/time plots determined are used to calculate the pharmacokinetic parameters such as AUC, Cmax, t1/2 (terminal half life), F (Bioavailability), MRT (Mean Residence Time) and CL (Clearance), using a validated pharmacokinetic calculation programme.
Since the substance quantification is carried out in plasma, it is necessary to determine the blood/plasma distribution of the substance in order to be able to adjust the pharmacokinetic parameters correspondingly. For this purpose, a defined amount of substance is incubated in heparinised whole blood of the species in question in a rocking roller mixer for 20 min. After centrifugation at 1000 g, the plasma concentration is measured (by means of LC-MS/MS; see above) and determined by calculating the ratio of the Cblood/Cplasma value.

With Cc1cc(OCc2ncccc2F)c2nc(C)c(C(=O)NC(CCCC(F)(F)F)C(C)(C)O)n2c1 (single isomer, unassigned; ent-8) [Example 181, ent-8-[(3-fluoropyridin-2-yl)methoxy]-2,6-dimethyl-N-(7,7,7-trifluoro-2-hydroxy-2-methylheptan-3-yl)imidazo[1,2-a]pyridine-3-carboxamide (enantiomer B)] the “MEC (minimal effective concentration)” value [1] was 0.3 µM, the AUCnorm [2] was 2.5 kg·h/L and the CLblood [2] was 0.56 L/h/kg. It also gave an MRT [2] of 3.3 h and a half-life [2] of 204 min.

With Cc1cc(OCc2ncccc2F)c2nc(C)c(C(=O)NC(CCC(F)(F)C(F)(F)F)C(C)(C)O)n2c1 (single isomer, unassigned; ent-8) [Example 187, ent-8-[(3-fluoropyridin-2-yl)methoxy]-2,6-dimethyl-N-(6,6,7,7,7-pentafluor-2-hydroxy-2-methylheptan-3-yl)imidazo[1,2-a]pyridine-3-carboxamide (enantiomer B)] the “MEC (minimal effective concentration)” value [1] was 1 µM, the AUCnorm [2] was 2.0 kg·h/L and the CLblood [2] was 0.71 L/h/kg. For the same compound, the MRT [2] was 4 h and the half-life [2] was 276 min.
